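Where inhibition never reached the appropriate level, the endpoint shown equals the highest concentration tested. Otherwise, values were interpolated linearly from a five-concentration, 48-hour dose response in 96-well plates. TGI: total growth inhibition.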
Assays:
Experiment in all cases: NCI-60 cell line screen, 48 h
M19-MEL melanoma = system: M19-MEL melanoma
PC-3 prostate = system: PC-3 prostate
786-0 renal = system: 786-0 renal
KM20L2 colon = system: KM20L2 colon
IGROV1 ovarian = system: IGROV1 ovarian
COLO 205 colon = system: COLO 205 colon
SR leukemia = system: SR leukemia
HCT-116 colon = system: HCT-116 colon
MDA-MB-435 = system: MDA-MB-435
HCC-2998 colon = system: HCC-2998 colon

Cc1cc2c(cc1C)[n+](=O)c(C(=O)/C=C/c1ccccc1[N+](=O)[O-])c(C)n2[O-]
TGI (M19-MEL melanoma): > 100 µM | TGI (PC-3 prostate): > 100 µM | TGI (786-0 renal): 68.4 µM | TGI (KM20L2 colon): > 100 µM | TGI (IGROV1 ovarian): > 100 µM | TGI (COLO 205 colon): > 100 µM | TGI (SR leukemia): > 95.7 µM | TGI (HCT-116 colon): > 100 µM | TGI (MDA-MB-435): > 100 µM | TGI (HCC-2998 colon): > 100 µM

COc1cc2c(cc1OC)C(SC)C(=O)N(Cc1cccc(OC)c1OC)CC2 (stereo not drawn)
TGI (M19-MEL melanoma): 22.3 µM | TGI (PC-3 prostate): > 69 µM | TGI (786-0 renal): > 100 µM | TGI (KM20L2 colon): > 100 µM | TGI (IGROV1 ovarian): > 90.8 µM | TGI (COLO 205 colon): 16.9 µM | TGI (SR leukemia): 24.1 µM | TGI (HCT-116 colon): > 70.2 µM | TGI (MDA-MB-435): 8.36 µM | TGI (HCC-2998 colon): 29.1 µM

C1=C(c2ccccc2)C(OC2Oc3ccccc3C=C2c2ccccc2)Oc2ccccc21 (stereo not drawn)
TGI (M19-MEL melanoma): > 100 µM | TGI (786-0 renal): > 100 µM | TGI (KM20L2 colon): > 100 µM | TGI (IGROV1 ovarian): > 100 µM | TGI (COLO 205 colon): > 100 µM | TGI (SR leukemia): > 100 µM | TGI (HCT-116 colon): > 100 µM | TGI (HCC-2998 colon): > 100 µM

O=c1c2ccccc2n2cnc3ccc(NCCNCCO)c1c32
TGI (M19-MEL melanoma): 12.9 µM | TGI (PC-3 prostate): 6.15 µM | TGI (786-0 renal): 10.4 µM | TGI (KM20L2 colon): 12.1 µM | TGI (IGROV1 ovarian): 9.59 µM | TGI (COLO 205 colon): 5.09 µM | TGI (SR leukemia): > 33.6 µM | TGI (HCT-116 colon): 8.29 µM | TGI (MDA-MB-435): 6.68 µM | TGI (HCC-2998 colon): 11.3 µM

— PubChem BioAssay (NCI)
